We go through one compound from patent publication US9284325B2, “Spectinamides as anti-tuberculosis agents” (UNIVERSITY OF TENNESSEE RESEARCH FOUNDATION, priority 2009, dated 2016).

Structures can show the parent of a compound that is named as a salt.

For one series, the system named is M. tuberculosis H37Rv. Put plainly: MIC determination by microbroth dilution, anti-tuberculosis activity. The format is cell-based, Mycobacterium tuberculosis.
For series [1], the system named is Strep. pyogenes ATCC 700294. Kind of series: MIC determination by microbroth dilution. The class given is cell-based, Streptococcus pyogenes. The settings on record: Streptococcus pyogenes, ATCC700294, read-out: MIC S. pyogenes. Background: Broth dilution looks for growth in wells or tubes with falling amounts of substance.
Series [2] concerns Strep. pneumoniae DAW27 or strain R6. Put plainly: MIC determination by microbroth dilution. The class given is cell-based, Streptococcus pneumoniae. The settings on record: Streptococcus pneumoniae; Strep. pneumoniae DAW27 or strain R6 (for 1443-1544); read-out: MIC S. pneumoniae.
Another series relates to B. anthracis Sterne 34F2. Put plainly: microbe, parasite or virus in culture. The settings on record: Bacillus anthracis, STERNE34F2, read-out: MIC B. anthracis 34F2. The format is cell-based, Bacillus anthracis.
Series [3] has as its system Acinetobacter baumannii ATCC 19606. Kind of series: MIC determination by microbroth dilution. The class given is cell-based. As to conditions: ATCC19606.
The subject of the next series is E. coli K12. Put plainly: MIC determination by microbroth dilution. The format is cell-based, Escherichia coli. As to conditions: Escherichia coli, K12.
A short description of series [4]: in vitro. The class given is in vitro ADME. As to conditions: rat, plasma, pH 7.4. The method, then:
Protein Binding: Protein binding of the compounds was determined using equilibrium dialysis. Biologically relevant concentrations of test compound were prepared (low and high) in rat plasma. 200 μL of the plasma sample was placed in the central chamber and 350 μL of blank isotonic phosphate buffer, pH 7.4 was added to the peripheral chamber of a dialysis device (MW cutoff 6000-8000 D, RED® device, Pierce Biotechnology Inc, Rockford, Ill., United States of America). The chambers were covered with a seal and incubated at 37° C. for four hours on a shaker set at 100 rpm. At the end of incubation, the volumes of plasma and recipient buffer were measured to identify and account for volume shift, if any. Aliquots of plasma and buffer were used to determine the drug concentration using an LC-MS/MS assay. The free fraction of the drug was calculated as ratio of the concentrations in the buffer and in plasma.
Following intravenous administration of 10 mg/kg in rats, 1329 follows a bi-exponential concentration/time profile with distinct distribution and elimination phases. Plasma protein binding of the compound is approximately 30%. 1329 is widely distributed with a steady state volume of distribution of 4.3 L/kg. It has a mean residence time in the body of approximately 5.3 hours.

The nature of series [5]: in vitro. The settings on record: African green monkey.

Turning to `CN[C@@H]1[C@H](O)[C@H](NC)C2O[C@]3(O)C(OC2[C@H]1O)O[C@H](C)C[C@H]3NC(=O)Cc1ccccn1` (stereo partly drawn) [Compound 1329, 3′-Dihydro-3′-deoxy-4(R)-(pyridin-2yl)acetylamino spectinomycin Dihydrochloride], the “Activity (MIC) of 1329 compared to streptomycin” value in the series with M. tuberculosis H37Rv is recorded as 0.8-1.6. The MIC was 0.8 µg/mL in the series with M. tuberculosis H37Rv (Mycobacterium tuberculosis, H37RV, 168 h, read-out: MIC); 50 µg/mL in series [1]; 6.25 µg/mL in series [2]; 50 µg/mL with B. anthracis Sterne 34F2; over 200 µg/mL in series [3]; 200 µg/mL against E. coli K12. Also, the unbound share (fraction unbound) (commonly the share of the substance not bound to proteins or other matrix) at 4 h in “in vitro [4]” was about 0.7. Also, in the series “in vitro [5]”, the IC50 (in general, the concentration that inhibits the measured activity by half) at 72 h turned out to be 2180 µg/mL.
